This is an account of results in ChEMBL document CHEMBL5678795 (Eur J Pharmacol, 1999).

As a reminder, the inhibition is how much of the control response was suppressed. For orientation: Ki means the dissociation constant of the complex between target and ligand, obtained from inhibition or displacement. What is called half-life is the time in which the quantity being followed falls by half. Higher therefore signals slow decline. The IC50 is the point on the concentration scale where inhibition reaches its midpoint. The bioavailability is the share of a dose that reaches the circulation, judged against a reference dose that is usually intravenous. Higher therefore signals good availability.

In data set [1] the target is 5-hydroxytryptamine receptor 5A (Homo sapiens) (UniProt P47898). In words: Displacement of [3H]LSD from human recombinant 5-Hydroxytryptamine 5A at 10 uM incubated for 120 mins by radiometric based scintillation counter assay relative to control. Background: Loss of bound radioactivity is the signal in a displacement assay; it reports binding, not function.
Data set [2] has as its target T1, Endothelin receptor type B (Homo sapiens, UniProt P24530).
T1 sequence (P24530 whole entry): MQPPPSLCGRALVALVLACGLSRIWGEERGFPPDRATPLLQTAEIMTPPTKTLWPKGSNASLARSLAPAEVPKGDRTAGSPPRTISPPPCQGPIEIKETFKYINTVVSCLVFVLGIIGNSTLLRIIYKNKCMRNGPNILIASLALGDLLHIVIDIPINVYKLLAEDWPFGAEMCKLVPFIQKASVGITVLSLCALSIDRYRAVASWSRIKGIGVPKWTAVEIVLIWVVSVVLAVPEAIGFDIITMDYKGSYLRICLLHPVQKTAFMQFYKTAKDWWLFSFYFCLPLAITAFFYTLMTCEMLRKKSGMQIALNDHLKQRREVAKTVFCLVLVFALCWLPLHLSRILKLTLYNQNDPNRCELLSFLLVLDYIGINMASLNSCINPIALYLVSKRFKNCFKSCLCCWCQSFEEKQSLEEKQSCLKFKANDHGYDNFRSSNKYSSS
In words: Displacement of [125I]endhothelin-3 from human ETB receptor stably expressed in CHO cells Membrane assessed as inhibition constant at 25 degC incubated for 4 hrs by saturation binding assay. In kind it is cell membranes.

Data set [3] concerns the target Muscarinic acetylcholine receptor M2 (Homo sapiens) (UniProt P08172). In words: Displacement of [3H]AF-DX 384 from human recombinant muscarinic M2 receptor at 10 uM incubated for 60 mins by radiometric based scintillation counter assay relative to control.
Data set [4] is filed under the species Homo sapiens. In words: Displacement of [3H]BRL 43694 from human recombinant 5-Hydroxytryptamine 3 at 10 uM incubated for 120 mins by radiometric based scintillation counter assay relative to control.
Data set [5] has as its system Glutamate receptor ionotropic NMDA (PCP site). In words: Inhibition of PCP receptor (unknown origin) at 10 uM by radioligand binding assay relative to control. The following applies: Homo sapiens.
The nature of data set [6]: Half life in Sprague-Dawley rat at 10 mg/kg, po administered for 12 hrs by HPLC analysis. The following applies: in vivo. In kind it is ADME, organism-based.
Data set [7] has as its target Muscarinic acetylcholine receptor M1 (Homo sapiens) (UniProt P11229). In words: Displacement of [3H]pirenzepine from human recombinant muscarinic M1 receptor at 10 uM incubated for 60 mins by radiometric based scintillation counter assay relative to control.
Data set [8] deals with Neuropeptide Y receptor type 2 (Homo sapiens) (UniProt P49146). In words: Displacement of [125I]peptide YY from human recombinant Y2 receptor at 10 uM incubated for 60 mins by radiometric based scintillation counter assay relative to control.
Data set [9] addresses Beta-2 adrenergic receptor (Homo sapiens) (UniProt P07550). In words: Displacement of [3H](-)CGP 12177 from human recombinant beta2-adrenoceptor at 10 uM incubated for 120 mins by radiometric based scintillation counter assay relative to control.
Data set [10] is filed under the species Rattus norvegicus. In words: Displacement of [3H]GABA from rat brain GABA receptor at 10 uM incubated for 60 mins by radiometric based scintillation counter assay relative to control. Type of data set: tissue-based.
For data set [11], the target named is Type-2 angiotensin II receptor (Homo sapiens) (UniProt P50052). In words: Displacement of [125I]CGP 42112A from human recombinant angiotensin AT2 receptor at 10 uM incubated for 240 mins by radiometric based scintillation counter assay relative to control.
Data set [12] deals with D(2) dopamine receptor (Homo sapiens) (UniProt P14416). In words: Displacement of [3H]methyl-spiperone from human recombinant dopamine D2 receptor at 10 uM incubated for 60 mins by radiometric based scintillation counter assay relative to control.
For data set [13], the species on record is Homo sapiens. In words: Inhibition of L-type Ca2+ channel (unknown origin) at 10 uM by radioligand binding assay relative to control.
For data set [14], the species on record is Homo sapiens. In words: Inhibition of Ca2+ dependent potassium channel (unknown origin) at 10 uM by radioligand binding assay relative to control.
The target in data set [15] is T2, Endothelin-1 receptor (Homo sapiens, UniProt P25101).
T2 sequence (P25101 whole entry): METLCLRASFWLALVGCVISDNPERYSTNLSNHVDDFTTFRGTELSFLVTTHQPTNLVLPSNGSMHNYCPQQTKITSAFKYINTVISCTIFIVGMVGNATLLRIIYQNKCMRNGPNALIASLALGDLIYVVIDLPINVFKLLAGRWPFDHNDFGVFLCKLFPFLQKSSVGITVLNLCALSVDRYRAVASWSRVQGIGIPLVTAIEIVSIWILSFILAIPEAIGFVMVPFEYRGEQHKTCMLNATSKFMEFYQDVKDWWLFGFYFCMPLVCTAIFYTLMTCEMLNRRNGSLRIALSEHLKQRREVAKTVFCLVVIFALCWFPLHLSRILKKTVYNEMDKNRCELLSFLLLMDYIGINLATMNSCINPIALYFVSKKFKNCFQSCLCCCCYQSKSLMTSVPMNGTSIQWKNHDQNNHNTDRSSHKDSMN
In words: Antagonist activity at ETA receptor in endothelin-1 stimulated human Pericardial smooth muscle cell assessed as inhibition of […] in presence of myo-[3H] inositol by anion exchange chromatography. In kind it is functional, cell-based.

Data set [16] deals with Endothelin receptor type B (Sus scrofa, UniProt P35463). In words: Displacement of [125I]endhothelin-3 from ETB receptor in porcine Cerebellum Membrane at 25 degC incubated for 3 hrs by radioligand competition binding assay. In kind it is cell membranes.
The target of data set [17] is T3, Endothelin-1 receptor (Homo sapiens) (UniProt P25101).
T3 sequence (whole entry): T2 sequence (P25101 whole entry)
In words: Antagonist activity at ETA receptor in human Pericardial smooth muscle cell assessed as inhibition of […] in presence of myo-[3H] inositol by anion exchange chromatography. Type of data set: functional, cell-based.

A short description of data set [18]: Oral bioavailability in Sprague-Dawley rat at 10 mg/kg administered for 12 hrs by HPLC analysis. Type of data set: ADME, organism-based. The note with it: in vivo.
Data set [19] concerns the target Muscarinic acetylcholine receptor M4 (Homo sapiens) (UniProt P08173). In words: Displacement of [3H]4-DAMP from human recombinant muscarinic M4 receptor at 10 uM incubated for 60 mins by radiometric based scintillation counter assay relative to control.
Data set [20] deals with T4, Endothelin-1 receptor (Rattus norvegicus, UniProt P26684).
T4 sequence (P26684 whole entry): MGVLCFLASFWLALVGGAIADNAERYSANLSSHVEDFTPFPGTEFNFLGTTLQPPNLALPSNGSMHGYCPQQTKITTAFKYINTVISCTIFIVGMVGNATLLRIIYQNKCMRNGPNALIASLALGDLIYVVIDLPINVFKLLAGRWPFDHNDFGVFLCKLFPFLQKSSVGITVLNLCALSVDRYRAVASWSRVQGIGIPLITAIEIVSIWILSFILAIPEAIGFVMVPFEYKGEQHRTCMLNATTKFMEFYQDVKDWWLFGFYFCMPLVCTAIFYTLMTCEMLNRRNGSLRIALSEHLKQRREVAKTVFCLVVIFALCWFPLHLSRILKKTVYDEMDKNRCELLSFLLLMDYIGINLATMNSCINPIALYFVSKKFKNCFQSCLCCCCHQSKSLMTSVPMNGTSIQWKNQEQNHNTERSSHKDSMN
In words: Antagonist activity at ETA receptor in endothelin-1 stimulated rat MMQ cells assessed as inhibition of phosphatidylinositol hydrolysis in presence of myo-[3H] inositol by anion exchange chromatography. Type of data set: functional, cell-based.

Activity calls are given as the source filed them. The calls are words filed in the database; no cut-off is given here.

Chain of D(2) dopamine receptor (Homo sapiens) (P14416 whole entry): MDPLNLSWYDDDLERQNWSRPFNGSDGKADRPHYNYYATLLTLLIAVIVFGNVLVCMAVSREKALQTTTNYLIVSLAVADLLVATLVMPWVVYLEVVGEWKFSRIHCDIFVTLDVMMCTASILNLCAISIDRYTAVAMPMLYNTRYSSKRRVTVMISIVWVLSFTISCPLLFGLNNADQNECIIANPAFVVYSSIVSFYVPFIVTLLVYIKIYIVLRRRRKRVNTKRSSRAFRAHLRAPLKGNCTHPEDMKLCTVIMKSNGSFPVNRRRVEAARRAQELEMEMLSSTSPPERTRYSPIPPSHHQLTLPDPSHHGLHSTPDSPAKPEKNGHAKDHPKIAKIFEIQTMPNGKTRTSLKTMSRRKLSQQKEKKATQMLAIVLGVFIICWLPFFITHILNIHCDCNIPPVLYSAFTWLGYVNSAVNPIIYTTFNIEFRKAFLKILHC
Chain of Muscarinic acetylcholine receptor M1 (Homo sapiens) (P11229 whole entry): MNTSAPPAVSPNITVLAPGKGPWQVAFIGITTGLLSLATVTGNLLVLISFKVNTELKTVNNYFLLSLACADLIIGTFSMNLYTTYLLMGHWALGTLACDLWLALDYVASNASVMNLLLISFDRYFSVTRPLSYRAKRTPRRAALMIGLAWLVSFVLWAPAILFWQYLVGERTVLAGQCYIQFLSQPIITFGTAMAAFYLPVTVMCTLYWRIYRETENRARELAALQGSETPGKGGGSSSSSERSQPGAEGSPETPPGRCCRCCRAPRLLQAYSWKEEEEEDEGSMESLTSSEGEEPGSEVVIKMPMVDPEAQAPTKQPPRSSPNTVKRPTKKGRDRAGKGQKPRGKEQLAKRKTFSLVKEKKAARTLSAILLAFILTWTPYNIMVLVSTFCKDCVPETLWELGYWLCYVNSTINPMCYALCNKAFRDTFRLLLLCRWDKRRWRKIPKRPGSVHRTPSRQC
Chain of Neuropeptide Y receptor type 2 (Homo sapiens) (P49146 whole entry): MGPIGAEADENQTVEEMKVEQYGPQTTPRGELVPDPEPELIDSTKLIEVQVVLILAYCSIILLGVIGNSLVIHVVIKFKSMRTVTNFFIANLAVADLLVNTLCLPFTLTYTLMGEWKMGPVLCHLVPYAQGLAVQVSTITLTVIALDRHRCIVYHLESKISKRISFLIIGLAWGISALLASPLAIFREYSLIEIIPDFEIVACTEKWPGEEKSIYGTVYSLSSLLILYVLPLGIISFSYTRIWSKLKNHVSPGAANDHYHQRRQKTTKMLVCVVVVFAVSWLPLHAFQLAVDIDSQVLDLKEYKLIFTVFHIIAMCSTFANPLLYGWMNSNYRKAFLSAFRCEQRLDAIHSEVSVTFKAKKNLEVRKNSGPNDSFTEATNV
Chain of Endothelin receptor type B (Sus scrofa, UniProt P35463) (P35463 whole entry): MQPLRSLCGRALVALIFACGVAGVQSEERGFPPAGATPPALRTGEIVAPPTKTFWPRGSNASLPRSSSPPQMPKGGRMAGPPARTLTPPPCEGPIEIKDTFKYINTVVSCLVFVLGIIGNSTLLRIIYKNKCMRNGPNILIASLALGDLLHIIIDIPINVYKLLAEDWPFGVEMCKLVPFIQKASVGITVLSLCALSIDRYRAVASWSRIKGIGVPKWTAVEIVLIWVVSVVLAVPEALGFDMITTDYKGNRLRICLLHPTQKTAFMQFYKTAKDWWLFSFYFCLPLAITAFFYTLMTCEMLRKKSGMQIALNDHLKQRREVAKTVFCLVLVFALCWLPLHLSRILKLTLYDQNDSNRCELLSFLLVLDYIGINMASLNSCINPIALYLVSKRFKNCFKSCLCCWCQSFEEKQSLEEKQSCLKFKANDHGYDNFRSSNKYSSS
Chain of Muscarinic acetylcholine receptor M2 (Homo sapiens) (P08172 whole entry): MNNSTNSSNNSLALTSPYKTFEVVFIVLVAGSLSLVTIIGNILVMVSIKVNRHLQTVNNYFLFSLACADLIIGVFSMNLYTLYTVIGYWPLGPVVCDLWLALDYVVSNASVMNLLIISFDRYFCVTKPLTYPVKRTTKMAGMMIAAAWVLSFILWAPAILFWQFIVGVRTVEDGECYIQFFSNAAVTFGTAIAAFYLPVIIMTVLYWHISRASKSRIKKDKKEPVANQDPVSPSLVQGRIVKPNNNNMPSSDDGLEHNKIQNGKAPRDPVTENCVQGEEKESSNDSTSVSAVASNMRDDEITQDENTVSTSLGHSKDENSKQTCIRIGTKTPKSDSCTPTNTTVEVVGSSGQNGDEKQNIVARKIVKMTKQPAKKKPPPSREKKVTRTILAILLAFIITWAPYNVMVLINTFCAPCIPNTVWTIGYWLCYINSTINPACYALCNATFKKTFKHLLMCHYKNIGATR
Chain of Beta-2 adrenergic receptor (Homo sapiens) (P07550 whole entry, looked up): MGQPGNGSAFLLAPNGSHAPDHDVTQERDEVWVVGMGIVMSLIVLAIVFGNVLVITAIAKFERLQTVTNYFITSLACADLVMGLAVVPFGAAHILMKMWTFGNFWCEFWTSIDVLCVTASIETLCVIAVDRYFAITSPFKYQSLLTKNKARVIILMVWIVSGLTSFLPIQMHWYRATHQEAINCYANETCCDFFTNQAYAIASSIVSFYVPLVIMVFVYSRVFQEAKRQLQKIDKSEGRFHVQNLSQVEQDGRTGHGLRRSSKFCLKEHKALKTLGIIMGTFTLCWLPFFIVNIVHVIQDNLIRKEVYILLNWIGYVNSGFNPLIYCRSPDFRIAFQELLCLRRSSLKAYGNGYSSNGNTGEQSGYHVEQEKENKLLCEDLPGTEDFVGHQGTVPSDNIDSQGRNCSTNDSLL
Chain of Type-2 angiotensin II receptor (Homo sapiens) (P50052 whole entry): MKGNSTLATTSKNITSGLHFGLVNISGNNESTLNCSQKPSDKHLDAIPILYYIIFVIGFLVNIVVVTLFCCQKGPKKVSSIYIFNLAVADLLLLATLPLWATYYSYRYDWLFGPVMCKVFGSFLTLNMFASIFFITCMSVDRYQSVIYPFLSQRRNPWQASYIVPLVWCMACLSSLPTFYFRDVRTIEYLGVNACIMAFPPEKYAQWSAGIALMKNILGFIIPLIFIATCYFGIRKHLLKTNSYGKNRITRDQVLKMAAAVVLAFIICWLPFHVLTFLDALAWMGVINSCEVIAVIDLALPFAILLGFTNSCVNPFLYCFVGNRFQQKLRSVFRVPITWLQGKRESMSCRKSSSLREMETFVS
Chain of 5-hydroxytryptamine receptor 5A (Homo sapiens) (P47898 whole entry): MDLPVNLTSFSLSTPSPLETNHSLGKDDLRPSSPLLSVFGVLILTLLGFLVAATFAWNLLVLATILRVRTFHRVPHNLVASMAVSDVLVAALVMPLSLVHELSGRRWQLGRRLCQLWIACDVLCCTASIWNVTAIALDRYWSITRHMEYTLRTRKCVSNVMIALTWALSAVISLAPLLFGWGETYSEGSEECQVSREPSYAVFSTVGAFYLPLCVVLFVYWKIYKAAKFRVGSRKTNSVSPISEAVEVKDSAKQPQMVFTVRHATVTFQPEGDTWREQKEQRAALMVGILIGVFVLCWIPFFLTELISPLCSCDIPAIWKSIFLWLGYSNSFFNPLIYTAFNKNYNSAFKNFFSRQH
Chain of Muscarinic acetylcholine receptor M4 (Homo sapiens) (P08173 whole entry): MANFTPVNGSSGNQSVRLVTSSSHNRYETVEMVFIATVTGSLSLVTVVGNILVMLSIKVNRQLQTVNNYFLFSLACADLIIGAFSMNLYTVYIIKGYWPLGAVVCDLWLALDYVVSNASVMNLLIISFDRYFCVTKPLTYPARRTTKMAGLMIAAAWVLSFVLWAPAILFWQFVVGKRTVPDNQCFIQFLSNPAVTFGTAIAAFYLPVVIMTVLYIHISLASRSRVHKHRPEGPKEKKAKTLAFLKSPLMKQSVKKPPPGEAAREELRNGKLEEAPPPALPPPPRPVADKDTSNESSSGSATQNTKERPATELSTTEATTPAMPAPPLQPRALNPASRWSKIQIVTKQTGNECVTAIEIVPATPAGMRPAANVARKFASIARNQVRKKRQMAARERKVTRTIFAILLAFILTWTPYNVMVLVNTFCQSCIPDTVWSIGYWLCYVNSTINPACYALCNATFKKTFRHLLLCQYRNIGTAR

Take `CCCCN(CCCC)C(=O)CN1[C@H](c2cc(OC)c3c(c2)OCO3)C[C@@H](C(=O)O)[C@@H]1CC(C)(C)CCC`: the inhibition in data set [1], in data set [3], in data set [4], in data set [5], in data set [7] and in data set [8] was under 10% in each case. Also, the inhibition in data set [9] was under 10%; in [10], under 10%; in [11], under 10%; in data set [12], under 10%; in data set [13], 29%; in data set [14] it was under 10%. Moreover, in [19], the inhibition is under 10%. For the same compound, the Ki in data set [2] is 13 µM. In data set [6], this compound gave a half-life of 2.5 h. The IC50 in [15] came out at 0.00303 µM; in data set [16] it was 16.7 µM; in data set [20] it was 0.00059 µM. The outcome in data set [17] was inactive. For the same compound, the bioavailability in [18] was determined as 47.7%.
